From ChEMBL document CHEMBL3880421, “Indazole compounds and pharmaceutical compositions for inhibiting protein kinases, and methods for their use” (2003)

experiment: Terminal half life in B6 mouse at 25 mg/kg, ip by UV-HPLC analysis; assay type: ADME, organism-based; settings: in vivo, read-out: beta t1/2 (converted)

| SMILES | half-life [h] |
| --- | --- |
| Cc1ccc2cc(NC(=O)c3ccccc3Sc3ccc4c(/C=C/c5ccccn5)n[nH]c4c3)ccc2n1 | 3 |
| C[C@@H]1C[C@H]1C(=O)Nc1cccc(C(=O)c2ccc3c(/C=C/c4ccccn4)n[nH]c3c2)c1 (racemic) | 1.2 |
| O=C(Nc1cc(Nc2ccc3c(/C=C/c4ccccc4)n[nH]c3c2)ccc1F)c1ccccc1 | 19.9 |
| O=C(NCC1CC1)c1ccccc1Sc1ccc2c(/C=C/c3ccccn3)n[nH]c2c1 | 0.9 |
| CCn1nc(C)cc1C(=O)Nc1cc(C(=O)c2ccc3c(/C=C/c4ccccn4)n[nH]c3c2)ccc1C | 4 |
| O=C(Nc1cccc(Oc2ccc3c(/C=C/c4ccccn4)n[nH]c3c2)c1)c1ccccc1 | 2.4 |
| CCOCCNC(=O)c1ccccc1Sc1ccc2c(/C=C/c3ccccn3)n[nH]c2c1 | 1.8 |

experiment: Antiproliferative activity against VEGF-stimulated HUVEC cells assessed as reduction in cell viability at 10 nM preincubated for 1 hr followed by addition of VEGF measured after 72 hrs by MTT assay; assay type: functional; settings: Homo sapiens

| SMILES | inhibition at 0.01 µM [%] |
| --- | --- |
| C[C@@]12C[C@H]3C[C@H]1C[C@@]3(C(=O)Nc1cccc(C(=O)c3ccc4c(/C=C/c5ccccc5)n[nH]c4c3)c1)C2 | -1 |
| O=C(CCC(=O)N1CCCC1)Nc1cccc(Oc2ccc3c(/C=C/c4ccccc4)n[nH]c3c2)c1 | 48 |
| O=C(/C=C/C(=O)Nc1cccc(Nc2ccc3c(/C=C/c4ccccc4)n[nH]c3c2)c1)NCC1CC1 | 13 |
| O=C(Nc1cccc(Oc2ccc3c(/C=C/c4ccccc4)n[nH]c3c2)c1)C(O)c1ccccc1 (configuration not stated) | 56 |
| Cn1cnc(CC(=O)Nc2cccc(C(=O)c3ccc4c(/C=C/c5ccccc5)n[nH]c4c3)c2)c1 | 31 |
| C/C(=C\C(=O)Nc1cccc(C(=O)c2ccc3c(/C=C/c4ccccc4)n[nH]c3c2)c1)c1ccccc1C | 99 |
| O=C(Nc1cccc(Nc2ccc3c(/C=C/c4ccccc4)n[nH]c3c2)c1)[C@H]1CCC[C@H]1O | -4 |
| O=C(Nc1cccc(Nc2ccc3c(/C=C/c4ccccc4)n[nH]c3c2)c1)c1cccc2[nH]ccc12 | 94 |
| O=C(Cn1ccc2ccccc21)Nc1cccc(C(=O)c2ccc3c(/C=C/c4ccccc4)n[nH]c3c2)c1 | -11 |
| CCC(C(=O)Nc1cccc(Nc2ccc3c(/C=C/c4ccccc4)n[nH]c3c2)c1)c1ccccc1C (configuration not stated) | -3 |
| O=C(Nc1cccc(Oc2ccc3c(/C=C/c4ccccc4)n[nH]c3c2)c1)C1CC2C=CC1CC2 (configuration not stated) | 13 |
| O=C(Nc1cccc(Nc2ccc3c(/C=C/c4ccccc4)n[nH]c3c2)c1)c1cc(=O)cco1 | 17 |
| O=C(CCN1CCCCC1)Nc1cccc(Nc2ccc3c(/C=C/c4ccccc4)n[nH]c3c2)c1 | 30 |
| Cc1ccc(C2(C(=O)Nc3cccc(Oc4ccc5c(/C=C/c6ccccc6)n[nH]c5c4)c3)CC2)cc1 | 4 |
| C[C@@H]1[C@H](C)[C@H](C)C[C@@H]1C(=O)Nc1cccc(Nc2ccc3c(/C=C/c4ccccc4)n[nH]c3c2)c1 | 7 |
| CCCN(CCC)CC(=O)Nc1cccc(Nc2ccc3c(/C=C/c4ccccc4)n[nH]c3c2)c1 | 17 |
| Cc1cc(C(=O)Nc2cccc(Nc3ccc4c(/C=C/c5ccccc5)n[nH]c4c3)c2)no1 | 6 |
| CO[C@H](C(=O)Nc1cccc(Nc2ccc3c(/C=C/c4ccccc4)n[nH]c3c2)c1)c1ccccc1 | 80 |
| O=C(Nc1cccc(Nc2ccc3c(/C=C/c4ccccc4)n[nH]c3c2)c1)C1CC2C=CCC(C2)C1 (configuration not stated) | -17 |
| O=C(Cn1ccc2ccccc21)Nc1cccc(Nc2ccc3c(/C=C/c4ccccc4)n[nH]c3c2)c1 | -7 |
| CN1CC(C(=O)Nc2cccc(C(=O)c3ccc4c(/C=C/c5ccccc5)n[nH]c4c3)c2)CC1=O (configuration not stated) | 10 |
| Cc1cc(C(=O)Nc2cccc(C(=O)c3ccc4c(/C=C/c5ccccc5)n[nH]c4c3)c2)c(C)[nH]1 | 26 |
| O=C(CCC(=O)N1CCCC1)Nc1cccc(C(=O)c2ccc3c(/C=C/c4ccccc4)n[nH]c3c2)c1 | 27 |

| SMILES | inhibition at 0.01 µM [%] |
| --- | --- |
| C[C@@H](CC(=O)Nc1cccc(Oc2ccc3c(/C=C/c4ccccc4)n[nH]c3c2)c1)c1ccccc1 | 42 |
| CC(=O)N1CCC[C@@H]1C(=O)Nc1cccc(Nc2ccc3c(/C=C/c4ccccc4)n[nH]c3c2)c1 | -5 |
| COc1cccc(/C=C/C(=O)Nc2cccc(C(=O)c3ccc4c(/C=C/c5ccccc5)n[nH]c4c3)c2)c1 | 35 |
| Cn1cnc(CC(=O)Nc2cccc(Oc3ccc4c(/C=C/c5ccccc5)n[nH]c4c3)c2)c1 | 20 |
| CN1CSCCC1C(=O)Nc1cccc(C(=O)c2ccc3c(/C=C/c4ccccc4)n[nH]c3c2)c1 (configuration not stated) | 8 |
| CC(C)CC(=O)C(=O)Nc1cccc(C(=O)c2ccc3c(/C=C/c4ccccc4)n[nH]c3c2)c1 | 81 |
| CCNc1ccccc1C(=O)Nc1cccc(Nc2ccc3c(/C=C/c4ccccc4)n[nH]c3c2)c1 | 71 |
| CCNc1ccccc1C(=O)Nc1cccc(C(=O)c2ccc3c(/C=C/c4ccccc4)n[nH]c3c2)c1 | 54 |
| O=C(Nc1cccc(Nc2ccc3c(/C=C/c4ccccc4)n[nH]c3c2)c1)c1cc(=O)[nH]c(=O)[nH]1 | 12 |
| O=C(Cc1c(F)cccc1F)Nc1cccc(Oc2ccc3c(/C=C/c4ccccc4)n[nH]c3c2)c1 | 93 |
| O=C(/C=C/C1C[C@H]2C=C[C@H]1C2)Nc1cccc(Oc2ccc3c(/C=C/c4ccccc4)n[nH]c3c2)c1 (some centres not stated) | 48 |
| CCO/C(C)=C/C(=O)Nc1cccc(Nc2ccc3c(/C=C/c4ccccc4)n[nH]c3c2)c1 | 85 |
| O=C(Nc1cccc(Oc2ccc3c(/C=C/c4ccccc4)n[nH]c3c2)c1)C1CC2CC(O)C1C2 (configuration not stated) | 38 |
| CC1CC1C(=O)Nc1cccc(C(=O)c2ccc3c(/C=C/c4ccccc4)n[nH]c3c2)c1 (configuration not stated) | 96 |
| CC(=O)N1CCCC1C(=O)Nc1cccc(Oc2ccc3c(/C=C/c4ccccc4)n[nH]c3c2)c1 (configuration not stated) | 19 |
| O=C(c1cccc(NC(=O)C(O)c2ccccc2)c1)c1ccc2c(/C=C/c3ccccc3)n[nH]c2c1 (configuration not stated) | 3 |
| O=C(c1cccc(NC(=O)c2cc(=O)[nH]c(=O)[nH]2)c1)c1ccc2c(/C=C/c3ccccc3)n[nH]c2c1 | 14 |
| CC(C)[C@@H](O)C(=O)Nc1cccc(C(=O)c2ccc3c(/C=C/c4ccccc4)n[nH]c3c2)c1 | 33 |
| CC(C)CC(O)C(=O)Nc1cccc(C(=O)c2ccc3c(/C=C/c4ccccc4)n[nH]c3c2)c1 (configuration not stated) | 47 |
| O=C(Nc1cccc(Nc2ccc3c(/C=C/c4ccccc4)n[nH]c3c2)c1)C1C[C@H]2C=C[C@H]1C2 (some centres not stated) | 5 |
| CN(C)CCCC(=O)Nc1cccc(C(=O)c2ccc3c(/C=C/c4ccccc4)n[nH]c3c2)c1 | 24 |
| COc1ccc(C#N)c(C(=O)Nc2cccc(C(=O)c3ccc4c(/C=C/c5ccccc5)n[nH]c4c3)c2)c1 | -20 |
| O=C(Cc1cc(F)cc(F)c1)Nc1cccc(Oc2ccc3c(/C=C/c4ccccc4)n[nH]c3c2)c1 | 80 |

| SMILES | inhibition at 0.01 µM [%] |
| --- | --- |
| C[C@@]12C[C@H]3C[C@H]1C[C@@]3(C(=O)Nc1cccc(Oc3ccc4c(/C=C/c5ccccc5)n[nH]c4c3)c1)C2 | 30 |
| CC1(C)C(C(=O)Nc2cccc(Oc3ccc4c(/C=C/c5ccccc5)n[nH]c4c3)c2)C1(C)C | 71 |
| CC(=O)NC(C)(C)CC(=O)Nc1cccc(C(=O)c2ccc3c(/C=C/c4ccccc4)n[nH]c3c2)c1 | 35 |
| CCC(C(=O)Nc1cccc(C(=O)c2ccc3c(/C=C/c4ccccc4)n[nH]c3c2)c1)c1ccccc1C (configuration not stated) | 3 |
| O=C(Nc1cccc(Nc2ccc3c(/C=C/c4ccccc4)n[nH]c3c2)c1)C1C[C@H]2C[C@@H]1CCC2O (some centres not stated) | -9 |
| COc1cccc(CC(=O)Nc2cccc(C(=O)c3ccc4c(/C=C/c5ccccc5)n[nH]c4c3)c2)c1 | 87 |
| CC(C)C(=O)Nc1cccc(Nc2ccc3c(/C=C/c4ccccc4)n[nH]c3c2)c1 | 24 |
| Cc1cc(C(=O)Nc2cccc(C(=O)c3ccc4c(/C=C/c5ccccc5)n[nH]c4c3)c2)no1 | 50 |
| CN(C)C(=S)SCC(=O)Nc1cccc(C(=O)c2ccc3c(/C=C/c4ccccc4)n[nH]c3c2)c1 | 25 |
| CC(C)[C@@H](O)C(=O)Nc1cccc(Oc2ccc3c(/C=C/c4ccccc4)n[nH]c3c2)c1 | 32 |
| CC(C)c1ccccc1C(=O)Nc1cccc(Nc2ccc3c(/C=C/c4ccccc4)n[nH]c3c2)c1 | 79 |
| CC(=O)N1CCC(C(=O)Nc2cccc(C(=O)c3ccc4c(/C=C/c5ccccc5)n[nH]c4c3)c2)CC1 | 33 |
| C[C@@H](CC(=O)Nc1cccc(Nc2ccc3c(/C=C/c4ccccc4)n[nH]c3c2)c1)c1ccccc1 | 27 |
| O=C(Nc1cccc(Oc2ccc3c(/C=C/c4ccccc4)n[nH]c3c2)c1)c1cc(=O)cco1 | 18 |
| Cc1cc(C(=O)Nc2cccc(Nc3ccc4c(/C=C/c5ccccc5)n[nH]c4c3)c2)n[nH]1 | 86 |
| O=C(CC1=CCCCC1)Nc1cccc(Oc2ccc3c(/C=C/c4ccccc4)n[nH]c3c2)c1 | 92 |
| CC(C)(C)[C@@H](O)C(=O)Nc1cccc(C(=O)c2ccc3c(/C=C/c4ccccc4)n[nH]c3c2)c1 | 27 |
| CN1CC(C(=O)Nc2cccc(Nc3ccc4c(/C=C/c5ccccc5)n[nH]c4c3)c2)CC1=O (configuration not stated) | 20 |
| CC(=O)N1CCC[C@@H]1C(=O)Nc1cccc(Oc2ccc3c(/C=C/c4ccccc4)n[nH]c3c2)c1 | 20 |
| O=C1NCC(C(=O)Nc2cccc(C(=O)c3ccc4c(/C=C/c5ccccc5)n[nH]c4c3)c2)N1 (configuration not stated) | 21 |
| O=C(Nc1cccc(Nc2ccc3c(/C=C/c4ccccc4)n[nH]c3c2)c1)C1CC2CC(O)C1C2 (configuration not stated) | -20 |

experiment: Terminal half life in B6 mouse at 50 mg/kg, po by UV-HPLC analysis; assay type: ADME, organism-based; settings: B6, mouse, in vivo, read-out: beta t1/2 (converted)

| SMILES | half-life [h] |
| --- | --- |
| Cc1ccc2cc(NC(=O)c3ccccc3Sc3ccc4c(/C=C/c5ccccn5)n[nH]c4c3)ccc2n1 | 3 |
| C[C@@H]1C[C@H]1C(=O)Nc1cccc(C(=O)c2ccc3c(/C=C/c4ccccn4)n[nH]c3c2)c1 (racemic) | 0.7 |
| O=C(Nc1cc(Nc2ccc3c(/C=C/c4ccccc4)n[nH]c3c2)ccc1F)c1ccccc1 | 3.4 |
| O=C(NCC1CC1)c1ccccc1Sc1ccc2c(/C=C/c3ccccn3)n[nH]c2c1 | 1 |
| CCn1nc(C)cc1C(=O)Nc1cc(C(=O)c2ccc3c(/C=C/c4ccccn4)n[nH]c3c2)ccc1C | 3.4 |
| CC(C)ONC(=O)c1ccccc1Sc1ccc2c(/C=C/c3ccccn3)n[nH]c2c1 | 1.1 |

same assay, conditions: mouse, in vivo, BLD = below limit of detection

| SMILES | beta t1/2 |
| --- | --- |
| Cc1cc(C(=O)Nc2cccc(C(=O)c3ccc4c(/C=C/c5ccccn5)n[nH]c4c3)c2)on1 | Bld |
| O=C(Nc1cccc(C(=O)c2ccc3c(-c4nc5cccnc5[nH]4)n[nH]c3c2)c1)c1ccccc1 | Bld |
